# Data from US20020016346A1, “Method for enhancing outflow of aqueous humor in treatment of glaucoma” (The Regents University of California, a California …, priority 1994, published 2002).
# Like-named read-outs stand apart in the source and are kept apart here.
# Key:
# Na+2Cl−K+ co-transporter = target: T1, Na+2Cl−K+ co-transporter (Oryctolagus cuniculus, UniProt P55015); assay: Inhibition of short circuit current in perfused cortical thick ascending limb of the loop of Henle; assay type: cell-based, rabbit; settings: concentration blocking 50% of short circuit current
# T1 construct: cotransporter system found in the cortical thick ascending limbs of the loop of Henle of mammals; from tissue; host or cells: dissected, perfused cortical thick ascending limb tubules of rabbit kidney
# T1 sequence (P55015 1-1099): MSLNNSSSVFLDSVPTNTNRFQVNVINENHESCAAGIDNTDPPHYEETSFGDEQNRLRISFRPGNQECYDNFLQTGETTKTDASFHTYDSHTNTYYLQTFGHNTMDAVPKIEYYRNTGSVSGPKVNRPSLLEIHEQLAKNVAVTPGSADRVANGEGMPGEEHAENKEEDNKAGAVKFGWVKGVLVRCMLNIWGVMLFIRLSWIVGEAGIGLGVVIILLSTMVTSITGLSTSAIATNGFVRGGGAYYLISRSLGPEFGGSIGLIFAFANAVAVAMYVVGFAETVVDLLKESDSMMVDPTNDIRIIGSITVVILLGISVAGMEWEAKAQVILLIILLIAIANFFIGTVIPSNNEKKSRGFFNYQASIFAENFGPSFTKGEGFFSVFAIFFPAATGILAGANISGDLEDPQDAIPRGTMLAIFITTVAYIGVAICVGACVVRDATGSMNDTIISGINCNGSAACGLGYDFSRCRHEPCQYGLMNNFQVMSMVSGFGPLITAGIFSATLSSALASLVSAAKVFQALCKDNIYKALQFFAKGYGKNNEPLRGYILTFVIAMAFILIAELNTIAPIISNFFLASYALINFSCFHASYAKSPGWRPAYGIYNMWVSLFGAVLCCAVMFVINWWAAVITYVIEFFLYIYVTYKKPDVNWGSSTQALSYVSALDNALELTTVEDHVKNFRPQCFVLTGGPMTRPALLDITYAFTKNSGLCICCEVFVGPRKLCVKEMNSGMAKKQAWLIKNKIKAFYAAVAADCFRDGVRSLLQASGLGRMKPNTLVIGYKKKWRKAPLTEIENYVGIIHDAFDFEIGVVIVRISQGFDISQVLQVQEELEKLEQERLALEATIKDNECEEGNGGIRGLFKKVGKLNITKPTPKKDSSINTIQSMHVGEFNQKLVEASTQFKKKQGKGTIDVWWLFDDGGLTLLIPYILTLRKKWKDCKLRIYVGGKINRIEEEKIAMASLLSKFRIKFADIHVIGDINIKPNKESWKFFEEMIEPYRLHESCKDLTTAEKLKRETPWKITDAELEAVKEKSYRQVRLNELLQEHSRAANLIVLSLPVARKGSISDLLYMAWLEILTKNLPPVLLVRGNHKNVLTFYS
# Text: B. Burg et al. (Am J. Physiol. 210:1293-1298, 1966) as modified by […] Arch. 390:30-37, 1981) and […] et al. (Pflüger's Arch. 389:175-176, 1981), both of which are incorporated herein by reference in their entireties. In brief, this in vitro test uses the Na-2Cl^- K^+ cotransporter system found in the cortical thick ascending limbs of the loop of Henle of mammals, particularly rabbits, for example, female white New Zealand rabbits. The tubules are dissected and perfused according to the known techniques, but with the rate of perfusion through the lumen kept high (10-20 nl/min) to prevent changes in the ionic composition of the perfusate along the perfused tubule. As control perfusate, a solution containing (mM): NaCl 145; […] KH2PO4 0.4; MgCl2 1; Ca gluconate 1.3; and glucose 5 is used on both sides of the epithelium with pH adjusted to 7.4 The transepithelial potential (Vtc) is recorded continuously on both ends of the tubule. […] The ratio of both values ([…] the equivalent short circuit current Itc. There is a direct relationship between the decrease of Itc and the inhibition of the Na^+2Cl^-K^+ co-transporter by contact with the test compound ([…] et al., Klin. Wochenschr. 61:1019-1027, 1983). For each drug under study, dose-response curves are established by adding compounds at various concentrations to the luminal perfusate with at least three determinations for each concentration. […] Details of this method have been published previously in M. E. O'Donnell, J. Biol. Chem. 264:11559-11566, 1991, which is incorporated herein by reference in its entirety. An illustration of the use of this method is found in Example 1B of this application.
# [1] = Lipophilicity (log P′), n-octanol/phosphate buffer pH 7.4 shake-flask or RP-HPLC; assay type: physicochemical
# Experimental: The lipophilicity of a compound is expressed in terms of an octanol:water coefficient determined by the standard technique of radiolabelling the compound and introducing a small amount into equal volumes of octanol and tris buffer (50 mM, pH 7.4). Generally the lipophilicity (log P′) is expressed as the logarithm of the partition coefficient in n-octanol/phosphate buffer, pH 7.4 using the well known shake-flask method as described by Cloux, et al., J. Pharm. Belg., 43:141-151, 1973, which is incorporated herein by reference in its entirety. The coefficient of lipophilicity (log P′) of the compounds useful for topical application to decrease intra-ocular pressure is preferably at least 0.005, and more preferably at least 0.01.
# The lipophilicity of the aqueous humor outflow-increasing compounds of this invention can also be determined using a reversed phase, high performance liquid chromatograph (RP-HPLC) system for determination of the log P′ of the drug as described in B. Masereel, et al. (J. Pharm. Pharmacol. 44:589-593, 1992), which is incorporated herein by reference in its entirety. Briefly, a reversed phase column (RP-18) is equilibrated with n-propanol/phosphate buffer, pH 7.4 at a ratio of 30:70). Compounds to be tested are dissolved and eluted with the same solution. A series of standards with a wide range of lipophilicity, as determined by the shake-flask method, is run and a calibration curve is established for each session. KNO3 is injected to determine the void volume and […] is determined, wherein tr is the drug retention time andot is the retention time of NO3-. Calibration curves are calculated using log P′ and log k′ values. Log P′ values of other compounds are obtained by interpolation of the standard curves.
# Na—K—Cl cotransport = target: T2, Na—K—Cl cotransport (Bos taurus, UniProt F1MS08); assay: K influx (86Rb) in bovine TM cell monolayers; assay type: cell-based; settings: bovine TM cells; VP 100 nM, NE 10 μM, Ach 1 μM, cAMP 50 μM, cGMP 50 μM, A23187 1 μM, PMA 10 nM, Ca-free medium plus 5 μM BAPTA-AM; control 25.6 ± 0.71
# T2 sequence (F1MS08 1-1204): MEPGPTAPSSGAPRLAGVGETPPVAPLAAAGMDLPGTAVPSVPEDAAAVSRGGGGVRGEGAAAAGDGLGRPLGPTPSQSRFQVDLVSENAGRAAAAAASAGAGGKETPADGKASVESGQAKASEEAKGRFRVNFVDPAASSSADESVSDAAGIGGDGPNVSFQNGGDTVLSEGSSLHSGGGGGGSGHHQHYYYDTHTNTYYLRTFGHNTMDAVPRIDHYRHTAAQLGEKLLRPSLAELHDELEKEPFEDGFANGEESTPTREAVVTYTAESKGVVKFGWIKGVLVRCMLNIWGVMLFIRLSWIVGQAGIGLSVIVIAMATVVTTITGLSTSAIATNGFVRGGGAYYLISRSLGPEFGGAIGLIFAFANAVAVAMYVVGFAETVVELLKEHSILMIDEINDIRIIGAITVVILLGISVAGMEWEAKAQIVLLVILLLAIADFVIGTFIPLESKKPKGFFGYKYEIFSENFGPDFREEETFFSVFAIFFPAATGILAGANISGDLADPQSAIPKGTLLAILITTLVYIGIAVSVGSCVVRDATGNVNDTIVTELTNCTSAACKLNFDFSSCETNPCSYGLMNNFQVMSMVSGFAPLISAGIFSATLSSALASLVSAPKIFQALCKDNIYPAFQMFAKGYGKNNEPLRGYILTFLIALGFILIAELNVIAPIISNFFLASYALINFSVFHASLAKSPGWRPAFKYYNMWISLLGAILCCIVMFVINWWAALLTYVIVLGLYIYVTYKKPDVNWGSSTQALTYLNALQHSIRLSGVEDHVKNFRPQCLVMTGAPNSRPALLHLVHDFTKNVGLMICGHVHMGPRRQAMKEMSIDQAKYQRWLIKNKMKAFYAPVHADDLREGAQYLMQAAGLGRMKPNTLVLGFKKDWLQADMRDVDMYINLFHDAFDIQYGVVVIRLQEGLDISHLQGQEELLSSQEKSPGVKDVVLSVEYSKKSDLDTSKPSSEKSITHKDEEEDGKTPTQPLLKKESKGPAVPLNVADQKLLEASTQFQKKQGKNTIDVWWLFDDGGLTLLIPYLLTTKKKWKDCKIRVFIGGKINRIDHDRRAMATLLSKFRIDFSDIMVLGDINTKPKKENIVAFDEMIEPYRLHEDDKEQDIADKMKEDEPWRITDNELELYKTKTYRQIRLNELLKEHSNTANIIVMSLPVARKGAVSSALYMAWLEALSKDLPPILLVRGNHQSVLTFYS
# Experimental: Details of this method have been published previously (O'Donnell, M. E., supra, 1989). Briefly, bovine or human TM cell monolayers on 24 well plates were equilibrated for 10 minutes at 37° C. in a Hepes-buffered minimal essential medium (MEM) containing (in mM): 144 Na, 147 Cl, 5.8 K, 1.2 Ca, 4.2 HCO3, 0.4 H2PO4, […], 0.4 SO4, 5.6 glucose and 20 Hepes. […] The assay medium also contained ^86Rb (1 μCi/ml) (Dupont New England Nuclear, Boston, Mass.). The assay was terminated by rinsing the wells with ice-cold isotonic MgCl2, then extracting the contents with 0.2% sodium dodecyl sulfate (SDS), and determining the amount of radioactive contents by liquid scintillation. Osmolarities of all preincubation and assay media were verified by osmometry (Model 3W2, Advanced Instruments, Norwood, Mass.).
# The effects of hormones, neurotransmitters and second messengers on Bumetanide-sensitive K influx of bovine trabecular meshwork cells were assessed using the procedures of Example 1. […] The control is the Hepes-buffered medium containing Na, K, Cl, CA and other ions as described in Example 1B. […] The data represent the mean values±SEM of quadruplicate determinations from two experiments.
SMILES,IC50 (Na+2Cl−K+ co-transporter; read-out: IC50) [nM],logP [1],IC50 (Na+2Cl−K+ co-transporter),BUMETANIDE-SENSITIVE K INFLUX (Na—K—Cl cotransport) [μmol/g protein/min]
O=C(NS(=O)(=O)c1cnccc1NC1CCCCCCC1)N1CCCCC1 [Compound 23],150,1.65,–,–
O=C(NC1CCCCC1)NS(=O)(=O)c1cnccc1NC1CCCCC1 [Compound 9],19000,1.33,–,–
"CC(=O)OCOC(=O)CN(CC(=O)OCOC(C)=O)c1ccccc1OCCOc1ccccc1N(CC(=O)OCOC(C)=O)CC(=O)OCOC(C)=O [Ca-free, 1,2-bis (o-aminophenoxy)ethane-N,N,N′,N-tetraacetic acid acetoxymethyl ester]",–,–,–,4.9 ± 1.06
O=C(NS(=O)(=O)c1cnccc1NC1CCCCC1)N1CCCCC1 [Compound 21],320,0.62,–,–
O=C(NC1CCCCC1)NS(=O)(=O)c1cnccc1NC1CCCCCCCCCCC1 [Compound 18],> 100000,3.45,inactive,–
"Nc1nc2c(nc(Br)n2[C@@H]2O[C@@H]3COP(=O)(O)O[C@H]3[C@H]2O)c(=O)[nH]1 [cGMP, 8-bromo-cyclic GMP]",–,–,–,19.7 ± 0.74
"NC[C@H](O)c1ccc(O)c(O)c1 [NE, norepinephrine]",–,–,–,18.6 ± 1.79
O=C(NS(=O)(=O)c1cnccc1NC1CCCCCC1)N1CCCCC1 [Compound 22],250,1.24,–,–
CC(C)NC(=O)NS(=O)(=O)c1cnccc1NC1CCCCC1 [Compound 8],700,0.58,–,–
CC(C)NC(=S)NS(=O)(=O)c1cnccc1NC1CCCCCC1 [Compound 19],1300,0.96,–,–
O=C(NC1CCCCCC1)NS(=O)(=O)c1cnccc1NC1CCCCC1 [Compound 12],9500,1.72,–,–

# Further lines, with some results ahead:
IC50 (Na+2Cl−K+ co-transporter; read-out: IC50) [nM],logP [1],IC50 (Na+2Cl−K+ co-transporter),SMILES,BUMETANIDE-SENSITIVE K INFLUX (Na—K—Cl cotransport) [μmol/g protein/min]
2000,2.45,–,O=C(NC1CCCCCC1)NS(=O)(=O)c1cnccc1NC1CCCCCCC1 [Compound 14],–
470,2.05,–,O=C(NC1CCCCC1)NS(=O)(=O)c1cnccc1NC1CCCCCCC1 [Compound 11],–
2800,2.06,–,O=C(NC1CCCCCC1)NS(=O)(=O)c1cnccc1NC1CCCCCC1 [Compound 13],–
1400,2.07,–,O=C(NC1CCCCCCC1)NS(=O)(=O)c1cnccc1NC1CCCCC1 [Compound 15],–
790,1.79,–,O=S(=O)(NC(=S)NC1CCCCC1)c1cnccc1NC1CCCCCC1 [Compound 20],–
3500,1.67,–,O=C(NC1CCCCC1)NS(=O)(=O)c1cnccc1NC1CCCCCC1 [Compound 10],–
1700,2.44,–,O=C(NC1CCCCCCC1)NS(=O)(=O)c1cnccc1NC1CCCCCC1 [Compound 16],–
200,0.45,–,Cc1cccc(Nc2ccncc2S(=O)(=O)NC(=O)NC(C)C)c1 [Compound 7],–
560,2.7,–,O=C(NC1CCCCCCC1)NS(=O)(=O)c1cnccc1NC1CCCCCCC1 [Compound 17],–
